Columns and labels:
[1] = target: Recombinant Human NF-kappaB-Inducing Kinase (NIK/MAP3K14) (Homo sapiens (Human), UniProt Q99558); test: Inhibition of auto-phosphorylation of recombinant human NIK/MAP3K14 activity (AlphaScreen); assay type: biochemical; details: GST-tagged NIK/MAP3K14 0.2 nM, 25 microM ATP, 1 h at 25° C.; averaged over all measurements on all batches; read-out: Alpha-Screen IC50
Experimental: Inhibition of Auto-Phosphorylation of Recombinant Human NF-kappaB-Inducing Kinase (NIK/MAP3K14) Activity (AlphaScreen®)
NIK/MAP3K14 auto-phosphorylation activity was measured using the AlphaScreen® (αscreen) format (Perkin Elmer). All compounds tested were dissolved in dimethyl sulfoxide (DMSO) and further dilutions were made in assay buffer. Final DMSO concentration was 1% (v/v) in assays. Assay buffer was 50 mM Tris pH 7.5 containing 1 mM EGTA (ethylene glycol tetraacetic acid), 1 mM DTT (dithiothreitol), 0.1 mM Na3VO4, 5 mM MgCl2, 0.01% Tween® 20. Assays were carried out in 384 well Alphaplates (Perkin Elmer). Incubations consisted of compound, 25 microM Adenosine-5′-triphosphate (ATP), and 0.2 nM NIK/MAP3K14. Incubations were initiated by addition of GST-tagged NIK/MAP3K14 enzyme, carried out for 1 h at 25° C. and terminated by addition of stop buffer containing anti-phospho-IKK Ser176/180 antibody. Protein A Acceptor and Glutathione-Donor beads were added before reading using an EnVision® Multilabel Plate Reader (Perkin Elmer). Signal obtained in the wells containing blank samples was subtracted from all other wells and IC50's were determined by fitting a sigmoidal curve to % inhibition of control versus Log10 compound concentration.

[2] = tested on: JJN-3 cells; test: Antiproliferative activity on JJN-3 cells (CellTiter-Glo); assay type: cell-based; details: Homo sapiens, 72 hr treatment, averaged values
Experimental: (§1) Determination of Antiproliferative Activity on LP-1, L-363 and JJN-3 Cells
(§2) All compounds tested were dissolved in DMSO and further dilutions were made in culture medium. Final DMSO concentration was 0.3% (v/v) in cell proliferation assays. Viability was assessed using CellTiter-Glo cell viability assay kit (Promega). The human LP-1, L-363 and JJN-3 cells (DSMZ) were cultured in RPMI 1640 medium supplemented with 2 mM L-glutamine, and 10% fetal calf serum (PAA). Cells were routinely kept as suspension cells at 37° C. in a humidified 5% CO2 atmosphere. Cells were passaged at a seeding density of 0.2×10^6/ml twice a week. Cells were seeded in black tissue culture treated 96-well plates (Perkin Elmer). Densities used for plating ranged from 2,000 to 6,000 cells per well in a total volume of 75 μl medium. After twenty four hours, drugs and/or solvents were added (25 μl) to a final volume of 100 μl. Following 72 hr of treatment plates were removed from the incubator and allowed to equilibrate to room temperature for approx 10 min. 100 μl CellTiter-Glo reagent was added to each well that was then covered (Perkin Elmer Topseal) and shaken on plate shaker for 10 min. Luminescence was measured on a HTS Topcount (Perkin Elmer). Within an experiment, the results for each treatment were the mean of 2 replicate wells. For initial screening purposes, compounds were tested using a 9 point dilution curve (serial 1:3 dilutions). For each experiment, controls (containing no drug) and a blank incubation (containing cells read at the time of compound addition) were run in parallel. The blank value was subtracted from all control and sample values. For each sample, the mean value for cell growth (in relative light units) was expressed as a percentage of the mean value for cell growth of the control.

[3] = tested on: L-363 cells; test: Antiproliferative activity on L-363 cells (CellTiter-Glo); assay type: cell-based; details: Homo sapiens, 72 hr treatment, averaged values
Experimental: as §1, §2

[4] = tested on: LP-1 cells; test: Antiproliferative activity on LP-1 cells (CellTiter-Glo); assay type: cell-based; details: Homo sapiens, 72 hr treatment, averaged values
Experimental: as §1, §2

[5] = tested on: P-IKKα levels in L363 cells; test: Effect of compounds on P-IKKα levels in L363 cells; assay type: cell-based; details: Homo sapiens, L-363, BAFF stimulated, 2 hr treatment, Mesoscale sandwich immuno-assay, averaged values, read-out: IKKα Cellular IC50
Experimental: Effect of Compounds on P-IKKα Levels in L363 Cells
All compounds tested were dissolved in DMSO and further dilutions were made in culture medium. Final DMSO concentration was 1% (v/v) in cell assays. The human L363 cells (ATCC) were cultured in RPMI 1640 medium supplemented with GlutaMax and 10% fetal calf serum (PAA). Cells were routinely maintained at densities of 0.2×10^6 cells per ml—1×10^6 cells per ml at 37° C. in a humidified 5% CO2 atmosphere. Cells were passaged twice a week splitting back to obtain the low density. Cells were seeded in 96 well plates (Nunc 167008) at 2×10^6 per ml media in a volume of 75 μl per well plus 25 μl 1 μg/ml recombinant human B-cell activating factor (BAFF/BLyS/TNFSF13B). Seeded cells were incubated at 37° C. in a humidified 5% CO2 atmosphere for 24 hr. Drugs and/or solvents were added (20 μl) to a final volume of 120 μl. Following 2 hr treatment plates were removed from the incubator and cell lysis was achieved by the addition of 30 μl 5× lysis buffer followed by shaking on a plate shaker at 4° C. for 10 min. At the end of this incubation lysed cells were centrifuged at 800×g for 20 min at 4° C. and the lysate was assessed for P-IKKα levels by sandwich immuno-assay carried out in anti-rabbit antibody coated Mesoscale plates. Within an experiment, the results for each treatment were the mean of 2 replicate wells. […]

Chain of Recombinant Human NF-kappaB-Inducing Kinase (NIK/MAP3K14) (Q99558 whole entry): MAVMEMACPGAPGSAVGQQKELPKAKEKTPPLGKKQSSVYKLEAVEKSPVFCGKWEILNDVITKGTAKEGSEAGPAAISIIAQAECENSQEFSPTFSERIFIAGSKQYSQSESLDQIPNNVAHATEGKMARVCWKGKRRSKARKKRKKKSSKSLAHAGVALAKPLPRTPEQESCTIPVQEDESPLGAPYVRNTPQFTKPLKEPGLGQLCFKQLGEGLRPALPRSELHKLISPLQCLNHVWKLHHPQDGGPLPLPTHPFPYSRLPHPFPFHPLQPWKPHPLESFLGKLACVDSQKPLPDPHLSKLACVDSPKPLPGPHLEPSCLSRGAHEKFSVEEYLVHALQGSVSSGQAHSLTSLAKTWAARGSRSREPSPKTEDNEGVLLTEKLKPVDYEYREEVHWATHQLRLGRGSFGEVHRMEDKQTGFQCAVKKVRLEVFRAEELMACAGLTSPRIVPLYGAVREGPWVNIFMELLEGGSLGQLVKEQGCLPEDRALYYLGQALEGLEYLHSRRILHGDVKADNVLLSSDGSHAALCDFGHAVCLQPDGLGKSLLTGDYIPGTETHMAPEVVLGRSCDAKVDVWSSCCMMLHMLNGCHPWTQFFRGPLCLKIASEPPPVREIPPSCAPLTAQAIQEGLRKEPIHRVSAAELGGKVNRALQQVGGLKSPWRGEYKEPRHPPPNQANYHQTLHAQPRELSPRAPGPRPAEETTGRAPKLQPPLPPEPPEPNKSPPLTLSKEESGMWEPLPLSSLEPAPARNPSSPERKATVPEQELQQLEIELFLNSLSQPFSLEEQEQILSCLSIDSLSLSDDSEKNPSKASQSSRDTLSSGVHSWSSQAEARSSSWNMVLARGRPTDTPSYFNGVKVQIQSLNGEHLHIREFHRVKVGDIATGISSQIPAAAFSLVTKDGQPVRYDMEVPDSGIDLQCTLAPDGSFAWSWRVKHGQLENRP

Compound | IC50 [1] [µM] | IC50 [5] [µM] | EC50 [2] [µM] | EC50 [3] [µM] | EC50 [4] [µM]
COCCCn1cc(-c2nc(N)nc3cn(C)nc23)c2cc(C#CC(C)(C)O)ncc21 [Compound 1] | 0.046 | – | 0.538 | 0.655 | 6.78
[2H]C([2H])([2H])C(O)(C#Cc1cc2c(-c3nc(N)nc4cn(CC)nc34)cn(C3CN(C4CC4)C3)c2cn1)C([2H])([2H])[2H] [Compound 12] | 0.084 | – | 0.301 | 0.14 | 0.877
CCn1cc2nc(N)nc(-c3cn(CCCOC)c4cnc(C#CC(C)(O)C5CC5)cc34)c2n1 (stereo not shown) [Compound 9] | 0.052 | – | 0.217 | 0.162 | 0.629
[2H]C([2H])([2H])C(O)(C#Cc1cc2c(-c3nc(N)nc4cn(CC)nc34)cn(CCCOC)c2cc1F)C([2H])([2H])[2H] [Compound 4] | 0.065 | – | 0.102 | 0.069 | 0.244
COCCCn1cc(-c2nc(N)nc3cn(C4CC4)nc23)c2cc(C#CC(C)(O)C3CC3)ncc21 (stereo not shown) [Compound 8] | 0.038 | – | 0.078 | 0.076 | 0.402
[2H]C([2H])([2H])C(O)(C#Cc1cc2c(-c3nc(N)nc4cn(CC)nc34)cn(C3CN(CC4CC4)C3)c2cn1)C([2H])([2H])[2H] [Compound 11] | 0.143 | – | 0.158 | 0.062 | 1.18
[2H]C([2H])([2H])n1cc2nc(N)nc(-c3cn(C4CCN(CC)C4)c4cc(F)c(C#CC(O)(C([2H])([2H])[2H])C([2H])([2H])[2H])cc34)c2n1 (stereo not shown) [Compound 5] | 0.112 | – | 0.046 | 0.052 | 0.128

Further compounds by falling IC50 [1], results first:

IC50 [1] [µM] | IC50 [5] [µM] | Compound | EC50 [2] [µM] | EC50 [3] [µM] | EC50 [4] [µM]
0.992 | – | CCn1cc2nc(N)nc(-c3cn(CCCOC)c4cc(F)c(C#CC(C)(O)C5CC5)cc34)c2n1 (stereo not shown) [Compound 3] | 0.182 | 0.246 | 0.845
0.186 | – | CCn1cc2nc(N)nc(-c3cn(C4CN(C5CC5)C4)c4cnc(C#CC(C)(O)C5CC5)cc34)c2n1 (stereo not shown) [Compound 10] | 0.406 | 0.241 | 0.788
0.06 | – | [2H]C([2H])([2H])C(O)(C#Cc1cc2c(-c3nc(N)nc4cn(CC)nc34)cn(C3CN(CC4CC4)C3)c2cc1F)C([2H])([2H])[2H] [Compound 7] | 0.095 | 0.053 | 0.202
0.037 | – | [2H]C([2H])([2H])C(O)(C#Cc1cc2c(-c3nc(N)nc4cn(CC)nc34)cn(C3CCN(CC)C3)c2cc1F)C([2H])([2H])[2H] (stereo not shown) [Compound 6] | 0.04 | 0.038 | 0.07
0.023 | 0.103 | COCCCn1cc(-c2nc(N)nc3cn(C)nc23)c2cc(C#CC(C)(O)C3CC3)ncc21 (stereo not shown) [Compound 2] | 0.358 | 0.386 | 2.96
